In the oligonucleotide strings, read from the 5' end, every base follows the letter of its sugar. An asterisk marks phosphorothioate; unmarked linkages are phosphodiester. Other units and linkages are bracketed, terminal groups are in braces. A string of capitals states the bases alone. e = 2'-O-(2-methoxyethyl) (MOE); [5mC] = 5-methylcytosine; d = 2'-deoxy (DNA)
How the values were obtained:
[1] = system: HeLa cells; assay: Cell cycle assay in HeLa cells; format: cell-based, human; conditions: HeLa cells, 150 nM oligomeric compound
[2] = system: T47D cells; assay: Caspase-3 activity assay (apoptosis) in T47D cells; conditions: for apoptosis in T47D cells: caspase assay, 200 nM, conclusion from Tables 9-12
[3] = 24 hours, relative to untreated control (UTC = 100)
[4] = 48 hours after treatment, relative to untreated control (UTC=100)

| Substance | apoptosis in T47D cells [2] | further results |
| --- | --- | --- |
| 328374 (eA*eG*e[5mC]*eT*eT*dT*dA*dG*d[5mC]*dT*dG*dG*dG*dT*d[5mC]*eA*eG*eG*eA*e[5mC]; antisense) [compound 328374] |  | % cells aneuploid [1, 3]: 97%; % cells in cell cycle phase G1 [1, 3]: 54%; % cells in cell cycle phase G2/M [1, 3]: 162%; % cells in cell cycle phase S [1, 3]: 115%; % cells in cell cycle phase subG1 [1, 3]: 198%; % cells in cell cycle phase: G1 [1, 4]: 65%; % cells in cell cycle phase: G2/M [1, 4]: 143%; % cells in cell cycle phase: S [1, 4]: 157%; % cells in cell cycle phase: aneuploid [1, 4]: 71%; % cells in cell cycle phase: subG1 [1, 4]: 787%; Fold Increase over UTC (caspase-3 activity, apoptosis) ([2]; T47D cells, 200 nM oligomeric compound, 48 hours, experiment of Table 11): 1.1 fold |
| SEQ ID NO 485: gapmer of Tables 9-12 having this SEQ ID NO (antisense eT*e[5mC]*eA*e[5mC]*eA*dA*dT*d[5mC]*d[5mC]*d[5mC]*d[5mC]*dA*d[5mC]*d[5mC]*dA*eA*eA*e[5mC]*eT*e[5mC]) | prevent or have a protective effect from apoptosis |  |
| SEQ ID NO 488: gapmer of Tables 9-12 having this SEQ ID NO (antisense e[5mC]*eT*eG*eA*e[5mC]*dT*dG*dA*dG*dA*d[5mC]*dT*dG*dT*dT*e[5mC]*eA*e[5mC]*eA*eG) | induce apoptosis |  |
| SEQ ID NO 495: gapmer of Tables 9-12 having this SEQ ID NO (antisense eA*e[5mC]*e[5mC]*eT*eG*dT*dG*dT*dA*dA*d[5mC]*dA*dG*d[5mC]*d[5mC]*eG*eT*eG*eT*eA) | prevent or have a protective effect from apoptosis |  |
| SEQ ID NO 496: gapmer of Tables 9-12 having this SEQ ID NO (antisense eT*eT*eA*eT*e[5mC]*dG*dG*dA*dA*d[5mC]*dT*dT*d[5mC]*dA*d[5mC]*eA*eG*eA*eG*eA) | induce apoptosis |  |
| SEQ ID NO 498: gapmer of Tables 9-12 having this SEQ ID NO (antisense eG*eG*e[5mC]*eA*e[5mC]*dT*dT*d[5mC]*dA*dT*dT*dG*d[5mC]*dT*dG*e[5mC]*eT*eG*e[5mC]*e[5mC]) | induce apoptosis |  |
| SEQ ID NO 502: gapmer of Tables 9-12 having this SEQ ID NO (antisense eG*e[5mC]*eT*eG*eG*d[5mC]*d[5mC]*dT*dG*dA*dT*dA*dG*d[5mC]*d[5mC]*e[5mC]*eT*eT*e[5mC]*eT) | induce apoptosis |  |
| SEQ ID NO 510: gapmer of Tables 9-12 having this SEQ ID NO (antisense eG*e[5mC]*e[5mC]*e[5mC]*eT*d[5mC]*dG*dA*d[5mC]*dG*dA*dA*dA*dA*d[5mC]*e[5mC]*eG*eA*e[5mC]*eT) | prevent or have a protective effect from apoptosis |  |
| SEQ ID NO 511: gapmer of Tables 9-12 having this SEQ ID NO (antisense eT*eT*eG*eA*eA*d[5mC]*dT*d[5mC]*d[5mC]*dA*dT*dG*d[5mC]*d[5mC]*dA*e[5mC]*eA*eA*eG*eG) | induce apoptosis |  |
| SEQ ID NO 516: gapmer of Tables 9-12 having this SEQ ID NO (antisense eA*eA*eT*eG*eG*dA*dG*d[5mC]*d[5mC]*dA*dA*dG*dG*dT*dG*e[5mC]*eT*eG*e[5mC]*e[5mC]) | induce apoptosis |  |
| SEQ ID NO 518: gapmer of Tables 9-12 having this SEQ ID NO (antisense eG*e[5mC]*eT*eA*eG*dT*dG*dA*d[5mC]*dA*dG*dG*dT*dG*d[5mC]*eA*eG*eA*e[5mC]*eA) | prevent or have a protective effect from apoptosis |  |
| SEQ ID NO 519: gapmer of Tables 9-12 having this SEQ ID NO (antisense eG*eG*eG*e[5mC]*e[5mC]*dT*dA*dT*d[5mC]*d[5mC]*dA*dA*dA*dG*dT*eG*eA*e[5mC]*eA*eG) | induce apoptosis |  |
| SEQ ID NO 520: gapmer of Tables 9-12 having this SEQ ID NO (antisense eT*eA*e[5mC]*e[5mC]*eT*d[5mC]*dT*dG*d[5mC]*dA*dG*dT*dA*dT*dT*e[5mC]*eT*eA*e[5mC]*eA) | prevent or have a protective effect from apoptosis |  |
| SEQ ID NO 521: gapmer of Tables 9-12 having this SEQ ID NO (antisense eT*eT*eT*eA*e[5mC]*dT*d[5mC]*dA*dT*dA*d[5mC]*d[5mC]*dT*d[5mC]*dG*e[5mC]*eA*eA*e[5mC]*e[5mC]) | induce apoptosis |  |
| SEQ ID NO 522: gapmer of Tables 9-12 having this SEQ ID NO (antisense eA*eA*eT*eT*eG*dT*dA*dT*dG*dA*d[5mC]*dA*dT*dT*dA*eA*eA*eT*e[5mC]*eA) | prevent or have a protective effect from apoptosis |  |
| SEQ ID NO 528: gapmer of Tables 9-12 having this SEQ ID NO (antisense eT*eG*eT*eT*eG*d[5mC]*d[5mC]*dT*dA*dA*d[5mC]*dG*dA*dA*d[5mC]*eA*e[5mC]*eA*eG*eA) | prevent or have a protective effect from apoptosis |  |

| Substance | apoptosis in T47D cells [2] | further results |
| --- | --- | --- |
| SEQ ID NO 532: gapmer of Tables 9-12 having this SEQ ID NO (antisense e[5mC]*e[5mC]*eA*e[5mC]*eA*dT*dA*dT*dA*d[5mC]*dA*dT*dA*dT*dA*eT*eA*e[5mC]*eG*e[5mC]) | prevent or have a protective effect from apoptosis |  |
| SEQ ID NO 534: gapmer of Tables 9-12 having this SEQ ID NO (antisense eG*eA*e[5mC]*e[5mC]*eT*dG*d[5mC]*dT*dA*d[5mC]*dT*d[5mC]*dA*d[5mC]*dT*e[5mC]*eT*e[5mC]*eG*eT) | prevent or have a protective effect from apoptosis |  |
| SEQ ID NO 535: gapmer of Tables 9-12 having this SEQ ID NO (antisense eG*eG*eT*eT*eG*dG*d[5mC]*d[5mC]*dG*d[5mC]*dA*dG*dA*d[5mC]*dT*e[5mC]*eG*eT*eA*e[5mC]) | induce apoptosis |  |
| SEQ ID NO 536: gapmer of Tables 9-12 having this SEQ ID NO (eG*eA*eT*eG*eT*d[5mC]*dA*d[5mC]*dT*dG*dA*dG*dG*dA*dA*eA*eT*e[5mC]*eA*e[5mC]) | prevent or have a protective effect from apoptosis |  |
| SEQ ID NO 539: gapmer of Tables 9-12 having this SEQ ID NO (e[5mC]*e[5mC]*eG*eG*e[5mC]*dT*dA*dT*dT*dG*dA*dG*dT*dT*dA*eT*eG*eT*eA*e[5mC]) | induce apoptosis |  |
| SEQ ID NO 541: gapmer of Tables 9-12 having this SEQ ID NO (eG*eA*eG*e[5mC]*eA*dT*dG*d[5mC]*dA*dA*d[5mC]*dA*d[5mC]*dT*d[5mC]*eT*eG*eT*eG*e[5mC]) | prevent or have a protective effect from apoptosis |  |
| SEQ ID NO 543: gapmer of Tables 9-12 having this SEQ ID NO (e[5mC]*eG*e[5mC]*eA*eT*d[5mC]*dT*dT*dG*dA*d[5mC]*dT*dG*dT*dA*eG*e[5mC]*eA*eT*eG) | prevent or have a protective effect from apoptosis |  |
| SEQ ID NO 544: gapmer of Tables 9-12 having this SEQ ID NO (eT*e[5mC]*eT*eA*eA*dG*dG*dG*dG*dT*d[5mC]*dA*d[5mC]*dA*dG*eA*eA*eG*eG*eT) | induce apoptosis |  |
| TACAACGGCATTGTCCTGAA (antisense; same sequence listed as MOE 5-10-5 gapmer and as uniform MOE, further chemistry not given here) [ISIS 328655] | prevent or have a protective effect from apoptosis |  |
| TACAATTTGGGAGTCCTGAA (antisense; same sequence listed as MOE 5-10-5 gapmer and as uniform MOE, further chemistry not given here) [ISIS 328689] | prevent or have a protective effect from apoptosis |  |
| TGCCATGAGATTCAACAGTC (2'-MOE gapmer, phosphorothioate, chemistry not fully specified) [ISIS 328415] | induce apoptosis |  |
| TGCTCAGCCAGCCCCATTCT (antisense; same sequence listed as MOE 5-10-5 gapmer and as uniform MOE, further chemistry not given here) [ISIS 328645] | induce apoptosis |  |
| TGCTGACTGCTCGCCCTTGC (antisense; same sequence listed as MOE 5-10-5 gapmer and as uniform MOE, further chemistry not given here) [ISIS 328641] | induce apoptosis |  |
| TTGTATGGACATTTAAATCA (antisense; same sequence listed as MOE 5-10-5 gapmer and as uniform MOE, further chemistry not given here) [ISIS 328692] | induce apoptosis |  |
| TTTCAGGCTCACCTCCCCAG (antisense; same sequence listed as MOE 5-10-5 gapmer and as uniform MOE, further chemistry not given here) [ISIS 328656] | induce apoptosis |  |

— US8178506B2, “Oligomeric compounds and compositions for use in modulation of small non-coding RNAs” (Regulus Therapeutics Inc., priority 2003, dated 2012)
